In patent US20160108414A1, “GROWTH-RELATED ENOX PROTEINS FROM PLANTS WITH YIELD ENHANCEMENT POTENTIAL, SEQUENCES AND METHODS” (Mor-NuCo Enterprises, Inc., priority 2013, published 2016):

Assays:
Assay type in all cases: biochemical
[1] = system: recombinant Arabidopsis ENOX1; assay: NADH oxidase activity of IEF-purified recombinant Arabidopsis ENOX1; conditions: for Effect on ENOX1 activity eluted from the IEF gel: concentrations of Table 5; for NADH oxidase activity: average of 3 determinations ± SD, None = 2.7 ± 0.4
Procedure: (§1) Cells were centrifuged at 5,000 g for 6 min. Pellets were then resuspended in 20 mM Tris-HCl, pH 8.0, containing 0.5 mM PMSF, 1 mM benzamidine and 1 mM 6-aminocaproic and lysed by three passages through a French pressure cell (SLM Aminco) at 20,000 psi. Expression of the recombinant Arabidopsis ENOX1 of about 14 kDa was confirmed by SDS-PAGE with silver staining. Transformed cells were stored at −80° C. in a standard glycerol stock solution. The Arabidopsis ENOX1 proteins were further purified on Criterion IEF gels (Bio-Rad, Hercules, Calif.). The IEF gel was cut into seven equal segments. The pH represented by each slice was based on IEF standards (Bio-Rad). The slices were soaked in 15 mM Tris-Mes buffer, pH 7, at 4° C. for overnight with shaking. The gel-free extracts were assayed for ENOX1 activity.
(§2) Oxidation of NADH was determined spectrophotometrically from the disappearance of NADH measured at 340 nm in a reaction mixture containing 25 mM Tris-MES (pH 7.2), 100 μM GSH, 1 mM KCN to inhibit mitochondrial oxidase activity, 150 μM NADH and the enzyme at 37° C. with temperature control (±0.5° C.) and stirring. Prior to assay, 1 μM reduced glutathione was added to reduce the protein in the presence of substrate. After 10 min, 0.03% hydrogen peroxide was added to reoxidize the protein under renaturing conditions and in the presence of substrate to start the reaction. Activities were measured using paired Hitachi U3210 or paired SLM Aminco 2000 spectrophotometers both with continuous recording. Assays were run for 1 min and were repeated on the same sample at intervals of 1.5 min for the times indicated. An extinction coefficient of 6.22 cm^−1 mM^−1 was used to determine specific activity.
IEF purified ENOX1 was concentrated to 0.7 mg/ml by using a Centricon concentrator (Millipore Corporation, Danvers, Mass.) fitted with a 10,000 nominal molecular weight limit ultracel YM membrane. Samples (50 μl) were combined with 1 μl of trifluoroacetic acid (TFA) in the presence or absence of 15 μl 10 mM bathocuproine. After 2 h of incubation at room temperature, the samples were dialyzed (Spectra/Pro Dialysis membrane, molecular weight cut-off 6-8,000, Spectrum Laboratories (Rancho Dominguez, Calif.) against 20 mM Tris-HCl, pH 8, at 4° C. overnight.

recombinant ABP-20 = target: T1, recombinant ABP-20 (Prunus persica, UniProt O04011, DUP151-151); assay: NADH oxidase activity of IEF-purified recombinant ABP-20 (dNOX); conditions: for NADH oxidase activity: average of 3 determinations ± SD, None = 0.1 ± 0.08
T1 construct: made in house; host or cells: E. coli BL21 (DE3), pET11b
Procedure: as §2
as §1, with “recombinant ABP-20” for “recombinant Arabidopsis ENOX1”, “about 20” for “about 14”, “The recombinant” for “The Arabidopsis ENOX1”, “for ENOX activities as follows: […]” for “for ENOX1 activity.”

dNOX (ABP-20) [2] = assay: DTDP (protein disulfide-thiol) interchange of dNOX (ABP-20) site-directed mutants
Procedure: Protein disulfide-thiol interchange was determined spectrophotometrically from the increase in absorbance at 340 nm resulting from the cleavage of dithiodipyridine (DTDP (Morré, D. J., Gomez-Rey, M. L., Schramke, C., Em, O., Lawler, J., Hobeck, J. and Morré, D. M. 1999. Mol. Cell. Bochem. 200: 7-13). DTDP cleavage was buffered (50 mM Tris-MES, pH 7). The assay was preincubated (1 h at room temperature) with 0.5 μmoles 2,2′-dithiodipyridine (DTDP) in 5 μl of DMSO to react with endogenous reductants present with the plasma membranes. After 10 min, a further […] DTDP were added in 35 μl DMSO to start the reaction. The final reaction volume was […]. The reaction was monitored from the increase in absorbance at 340 nm. Specific activities were calculated using a milimolar absorption coefficient of 6.21.
(§3) Amino acids indicated were replaced by alanines by site-directed mutagenesis according to Braman et al. (Braman, J., Papworth, C. and Greener, A. 1996. Methods Mol. Biol. 57:32-44). Numbered amino acids and nucleotide positions of splice variant products refer to numbers assigned to amino acids of the full length transcript

dNOX (ABP-20) [3] = assay: NADH oxidation of dNOX (ABP-20) site-directed mutants
Procedure: as §2, §3

T1 sequence (O04011 other isoform, or with tags, fused parts or gaps DUP151-151): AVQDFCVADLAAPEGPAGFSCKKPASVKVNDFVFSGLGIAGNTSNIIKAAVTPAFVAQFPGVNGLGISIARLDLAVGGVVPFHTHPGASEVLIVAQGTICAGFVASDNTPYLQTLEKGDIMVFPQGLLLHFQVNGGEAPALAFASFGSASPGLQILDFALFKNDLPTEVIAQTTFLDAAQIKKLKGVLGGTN

## O=C(O[C@@H]1Cc2c(O)cc(O)cc2O[C@@H]1c1cc(O)c(O)c(O)c1)c1cc(O)c(O)c(O)c1 [EGCg]
[1]
  Effect on ENOX1 activity eluted from the IEF gel: no inhibition was observed
[1]; inhibitor 500 μM
  NADH oxidase activity: 3.9 ± 0.05 µmol/min/mg

## O=C(O)c1cc[c]([Hg][Cl])cc1 [PCMB]
Recombinant ABP-20
  Effect on activity of recombinant ABP-20: inhibited
Recombinant ABP-20; addition 100 μM
  NADH oxidase activity: 0.1 ± 0.05 µmol/min/mg

## COc1ccc2[nH]cc(CCNC(C)=O)c2c1 [melatonin]
[1]; 1 μM melatonin
  New maximum after melatonin addition (phasing of 24 min period): 24 min

## O=S(=O)(O)c1cc[c]([Hg][Cl])cc1 [PCMS]
Recombinant ABP-20
  Effect on activity of recombinant ABP-20: inhibited
Recombinant ABP-20; addition 100 μM
  NADH oxidase activity: 0.3 ± 0.2 µmol/min/mg

## CC1=CC(=O)[C@@H](O)[C@]2(C)[C@H]3[C@@]4(O)OC[C@]35[C@H]([C@@H](C)[C@H]4O)[C@@H](O)C(=O)O[C@@H]5C[C@@H]12 [Glaucarubolone]
Recombinant ABP-20
  Effect on activity of recombinant ABP-20: inhibited the activity
Recombinant ABP-20; addition 1 μM
  NADH oxidase activity: 0.2 ± 0.06 µmol/min/mg

## COc1cccc2c1C(=O)c1c(O)c3c(c(O)c1C2=O)C[C@@](O)(C(=O)CO)C[C@@H]3O[C@H]1C[C@H](N)[C@H](O)[C@H](C)O1 [Doxorubicin]
Recombinant ABP-20
  Effect on activity of recombinant ABP-20: inhibited the activity
Recombinant ABP-20; addition 1 μM
  NADH oxidase activity: 0.2 ± 0.05 µmol/min/mg

## CC[C@@H](C)C(=O)O[C@H]1C(=O)O[C@@H]2C[C@H]3C(C)=CC(=O)[C@@H](O)[C@]3(C)[C@H]3[C@@H](O)[C@H](O)[C@]4(C)OC[C@]32[C@@H]14 [Simalikalactone D]
Recombinant ABP-20
  Effect on activity of recombinant ABP-20: without effect
Recombinant ABP-20; addition 1 μM
  NADH oxidase activity: 0.65 ± 0.07 µmol/min/mg
[1]; addition 1 μM
  NADH oxidase activity: 0.9 ± 0.1 µmol/min/mg
[1]
  Effect on ENOX1 activity eluted from the IEF gel: inhibited

## N.N.[Cl][Pt][Cl] [Cis-platinum]
Recombinant ABP-20
  Effect on activity of recombinant ABP-20: inhibited the activity
Recombinant ABP-20; addition 1 μM
  NADH oxidase activity: 0.2 ± 0.05 µmol/min/mg
[1]
  Effect on ENOX1 activity eluted from the IEF gel: no inhibition was observed
[1]; inhibitor 100 μM
  NADH oxidase activity: 3.5 ± 0.002 µmol/min/mg

## CCS(=O)(=O)c1nc2ccccn2c1S(=O)(=O)NC(=O)Nc1nc(OC)cc(OC)n1 [Sulfonsulfuron]
[1]
  Effect on ENOX1 activity eluted from the IEF gel: inhibited
[1]; inhibitor 100 μM
  NADH oxidase activity: 1.2 ± 0.5 µmol/min/mg

## O=C(O)c1cc(O)c(O)c(O)c1 [Gallic acid]
[1]; inhibitor 100 μM
  NADH oxidase activity: 3.0 ± 0.5 µmol/min/mg

## O=C(O)COc1cccc(Cl)c1Cl [2,3-dichlorophenoxyacetic acid]
Recombinant ABP-20
  Effect on activity of recombinant ABP-20: without effect
Recombinant ABP-20; addition 1 μM
  NADH oxidase activity: 0.15 ± 0.01 µmol/min/mg

## [2H]O[2H] [heavy water, Deuterium Oxide]
[1]; assayed in heavy water, normal period 24 min
  Period length of ENOX1 activity: about 30 min

## CC(=O)Nc1cc(NS(=O)(=O)C(F)(F)F)c(C)cc1C [Mefluidide, N-[2,4-Dimethyl-5-[[(trifluoromethyl)sulfonyl]amino]phenyl] acetamide]
[1]
  Effect on ENOX1 activity eluted from the IEF gel: inhibited
[1]; inhibitor 100 μM
  NADH oxidase activity: 1.8 ± 0.15 µmol/min/mg

## COc1cc(CNC(=O)CCCC/C=C/C(C)C)ccc1O [Capsaicin]
[1]; addition 1 μM
  NADH oxidase activity: 3.7 ± 0.1 µmol/min/mg
[1]
  Effect on ENOX1 activity eluted from the IEF gel: no inhibition was observed

## OCCc1ccc(O)cc1 [Tyrosol]
[1]; inhibitor 10 μM
  NADH oxidase activity: 3.4 ± 0.2 µmol/min/mg

## Cc1cc(-c2ccccc2)c2ccc3c(-c4ccccc4)cc(C)nc3c2n1 [bathocuproine]
Recombinant ABP-20; trifluoroacetic acid plus bathocuproine, FIG. 30B
  dNOX activity after unfolding: activity was lost
[1]; assayed with TFA and bathocuproine, FIG. 12
  NADH oxidase activity, 24 min period: much reduced

## Trans-platinum
Recombinant ABP-20
  Effect on activity of recombinant ABP-20: without effect
Recombinant ABP-20; addition 1 μM
  NADH oxidase activity: 0.7 ± 0.1 µmol/min/mg

## O=C(O)Cc1c[nH]c2ccccc12 [Indole-3-acetic acid]
Recombinant ABP-20; addition 1 μM
  NADH oxidase activity: 0.8 ± 0.05 µmol/min/mg
Recombinant ABP-20; higher concentration less effective
  optimum concentration for activation: about 1 μM

B1: G59A: ABP-20 with G59 replaced by alanine (adenine nucleotide binding motif) (protein, UniProt O04011 24-214, looked up, variant G59A)
Auxin-binding protein ABP20: AVQDFCVADLAAPEGPAGFSCKKPASVKVNDFVFSALGIAGNTSNIIKAAVTPAFVAQFPGVNGLGISIARLDLAVGGVVPFHTHPGASEVLIVAQGTICAGFVASDNTPYLQTLEKGDIMVFPQGLLHFQVNGGEAPALAFASFGSASPGLQILDFALFKNDLPTEVIAQTTFLDAAQIKKLKGVLGGTN
dNOX (ABP-20) [2]
  DTDP Interchange: 0.07 ± 0.02 μmoles/min/mg protein
  Effect of replacement on disulfide-thiol interchange: without effect
dNOX (ABP-20) [3]
  Effect of replacement on NADH oxidation: largely eliminated NADH oxidation
  NADH Oxidation: 0.06 ± 0.02 μmoles/min/mg protein

B2: H106A: ABP-20 putative copper site replacement (protein, UniProt O04011 24-214, looked up, variant H106A)
Auxin-binding protein ABP20: AVQDFCVADLAAPEGPAGFSCKKPASVKVNDFVFSGLGIAGNTSNIIKAAVTPAFVAQFPGVNGLGISIARLDLAVGGVVPFATHPGASEVLIVAQGTICAGFVASDNTPYLQTLEKGDIMVFPQGLLHFQVNGGEAPALAFASFGSASPGLQILDFALFKNDLPTEVIAQTTFLDAAQIKKLKGVLGGTN
dNOX (ABP-20) [2]
  DTDP Interchange: 0.02 ± 0.01 μmoles/min/mg protein
  Effect of replacement on disulfide-thiol interchange: near background
dNOX (ABP-20) [3]
  Effect of replacement on NADH oxidation: near background
  NADH Oxidation: 0.04 ± 0.01 μmoles/min/mg protein

B3: H152A: ABP-20 putative copper site replacement (protein, UniProt O04011 24-214, looked up, variant H152A)
Auxin-binding protein ABP20: AVQDFCVADLAAPEGPAGFSCKKPASVKVNDFVFSGLGIAGNTSNIIKAAVTPAFVAQFPGVNGLGISIARLDLAVGGVVPFHTHPGASEVLIVAQGTICAGFVASDNTPYLQTLEKGDIMVFPQGLLAFQVNGGEAPALAFASFGSASPGLQILDFALFKNDLPTEVIAQTTFLDAAQIKKLKGVLGGTN
dNOX (ABP-20) [2]
  DTDP Interchange: 0.02 ± 0.01 μmoles/min/mg protein
  Effect of replacement on disulfide-thiol interchange: near background
dNOX (ABP-20) [3]
  Effect of replacement on NADH oxidation: near background
  NADH Oxidation: 0.03 ± 0.01 μmoles/min/mg protein
